In patent publication US8987193B2, “Nisin derivatives and the use thereof” (University College Cork—National University of Ireland, Cork, priority 2008, dated 2015):
Entries after “also recorded” stand apart in the source; their conditions may differ. Ends that are not written are not given here.

Tests used:
C. sporogenes CBC5 = assay: Deferred antagonism assay; format: cell-based, Clostridium sporogenes; parameters: key: + = Enhanced bioactivity relative to control; − = Bioactivity equal to or less than control; NA = no activity evident; details: producing strain
[1] = system: Staph. aureus ST528 (MRSA); assay: Deferred antagonism assay; format: cell-based; details: producing strain, diameter of zone minus diameter of bacterial growth (5 mm), average of duplicates
Outline: (§1)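 Producer strains replicated on GM17 agar, grown overnight, then overlaid with soft agar (0.75% w/v) seeded with indicator strain. Zone size = clearing diameter minus 5 mm growth diameter, relative to NZ9800 pCI372nisA control; mean of duplicates.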

[2] = system: Strep. agalactiae ATCC13813; assay: Deferred antagonism assay; format: cell-based; details: producing strain, diameter of zone minus 5 mm, average of duplicates
Staph. aureus DPC5245 = assay: Deferred antagonism assay; format: cell-based; details: producing strain; diameter of zone minus 5 mm; average of duplicates; St. aureus DPC5245
Outline: as §1

L. lactis CBC7 = assay: Deferred antagonism assay; format: cell-based; parameters: key: + = Enhanced bioactivity relative to control; − = Bioactivity equal to or less than control; NA = no activity evident; details: producing strain
Outline: (§2)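 Producer strains replicated on GM17 or GM17 x-gal agar, grown overnight, then overlaid with 0.75% agar seeded with indicator strain. Zone size = diameter of clearing minus 5 mm growth diameter. Purified nisins tested by well diffusion at 37° C overnight; activity in AU/ml from reciprocal of highest active dilution × 20.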

S. aureus CBC4 = assay: Deferred antagonism assay; format: cell-based; parameters: key: + = Enhanced bioactivity relative to control; − = Bioactivity equal to or less than control; NA = no activity evident; details: producing strain
Outline: as §2

L. lactis CBC8 = assay: Deferred antagonism assay; format: cell-based; parameters: key: + = Enhanced bioactivity relative to control; − = Bioactivity equal to or less than control; NA = no activity evident; details: producing strain
Outline: as §2

L. plantarum CBC6 = assay: Deferred antagonism assay; format: cell-based, Lactobacillus plantarum; parameters: key: + = Enhanced bioactivity relative to control; − = Bioactivity equal to or less than control; NA = no activity evident; details: producing strain
Outline: as §2

L. monocytogenes CBC1 = assay: Deferred antagonism assay; format: cell-based, Listeria monocytogenes; parameters: key: + = Enhanced bioactivity relative to control; − = Bioactivity equal to or less than control; NA = no activity evident; details: producing strain; L. mono CBC1
Outline: as §2

L. monocytogenes CBC3 = assay: Deferred antagonism assay; format: cell-based, Listeria monocytogenes; parameters: key: + = Enhanced bioactivity relative to control; − = Bioactivity equal to or less than control; NA = no activity evident; details: producing strain; L. mono CBC3
Outline: as §2

L. monocytogenes CBC2 = assay: Deferred antagonism assay; format: cell-based, Listeria monocytogenes; parameters: key: + = Enhanced bioactivity relative to control; − = Bioactivity equal to or less than control; NA = no activity evident; details: producing strain; L. mono CBC2
Outline: as §2

indicator strains = assay: Deferred antagonism assays, various indicator strains (summary); format: cell-based; details: for Strain(s) against which the derivative (producing strain) displays enhanced bioactivity: relative to nisin A-producing control, value = strains listed; for bioactivity of the producing strain, in words: in general / against the strains tested
Outline: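 Producer strains were replicated on GM17 or GM17 x-gal agar, grown overnight, then overlaid with GM17, BHI, TS or MH soft agar (0.75% w/v) seeded with the indicator strain. Zone size was taken as the clearing diameter minus the diameter of bacterial growth (5 mm).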

| Substance | Bioactivity relative to control (C. sporogenes CBC5) | zone size relative to that of the NZ9800 pCI372nisA control [1] | zone size relative to that of the NZ9800 pCI372nisA control [2] | zone size relative to that of the NZ9800 pCI372nisA control (Staph. aureus DPC5245) | Bioactivity relative to control (L. lactis CBC7) | Bioactivity relative to control (S. aureus CBC4) | Bioactivity relative to control (L. lactis CBC8) | Bioactivity relative to control (L. plantarum CBC6) | Bioactivity relative to control (L. monocytogenes CBC1) | Bioactivity relative to control (L. monocytogenes CBC3) | Bioactivity relative to control (L. monocytogenes CBC2) | relative bioactivity against the indicators of Table 6 (indicator strains; Staph. aureus ST528, DPC5245 and Strep. agalactiae ATCC 13813 taken together) | Strain(s) against which the derivative (producing strain) displays enhanced bioactivity (indicator strains) | bioactivity of the producing strain, in words (indicator strains) |
| --- | --- | --- | --- | --- | --- | --- | --- | --- | --- | --- | --- | --- | --- | --- |
| NisinA K22G (ITSISLCTPGCKTGALMGCNMGTATCHCSIHVSK; cysteine pairing not given here; also: lantibiotic nisin-A; UniProt P13068 24-57, looked up, variant K22G) [nisin A derivative, hinge substitution K22G] | − | 118.5% | 126% | 112% | + | − | + | − | − | − | − | approximately 120% | L. lactis CBC7 and CBC8; also recorded: DPC5425, Strep. agalactiae ATCC 13813 |  |
| NisinA K22L (ITSISLCTPGCKTGALMGCNMLTATCHCSIHVSK; not fully specified; cysteine pairing not given here; also: lantibiotic nisin-A; UniProt P13068 24-57, looked up, variant K22L) [nisin A derivative, hinge substitution K22L] | − | 93.5% | 108% | 89% | − | − | + | − | − | − | − |  | L. lactis CBC8 | retention of relatively high levels of bioactivity |
| NisinA K22M (ITSISLCTPGCKTGALMGCNMMTATCHCSIHVSK; cysteine pairing not given here; also: lantibiotic nisin-A; UniProt P13068 24-57, looked up, variant K22M) [nisin A derivative, hinge substitution K22M] | − | 77% | 104% | 79.5% | − | − | + | − | − | − | − |  | L. lactis CBC8 | retention of relatively high levels of bioactivity |
| NisinA K22Q (ITSISLCTPGCKTGALMGCNMQTATCHCSIHVSK; not fully specified; also: lantibiotic nisin: dehydrated residues and thioether rings not placed; UniProt P13068 24-57, looked up, variant K22Q) [nisin A derivative, hinge substitution K22Q] | − | 82% | 82% | 77% | − | − | + | − | − | − | − |  | L. lactis CBC8 | slightly diminished bioactivity |
| NisinA K22V | − | 107% | 126% | 113% | − | − | + | − | − | − | + |  | L. monocytogenes CBC2 and L. lactis CBC8 |  |
| NisinA M21A (ITSISLCTPGCKTGALMGCNAKTATCHCSIHVSK; not fully specified; also: lantibiotic nisin: dehydrated residues and thioether rings not placed; UniProt P13068 24-57, looked up, variant M21A) [nisin A derivative, hinge substitution M21A] | − | 132.5% | 105% | 135% | + | − | + | − | + | − | − |  | L. monocytogenes CBC1 and L. lactis CBCT and CBC8; also recorded: L. monocytogenes CBC1 , and L. lactis CBC7 and CBC8; also recorded: L. monocytogenes CBC1, L. lactis CBC7, CBC8, S. aureus |  |
| NisinA M21K (ITSISLCTPGCKTGALMGCNKKTATCHCSIHVSK; not fully specified; also: lantibiotic nisin: dehydrated residues and thioether rings not placed; UniProt P13068 24-57, looked up, variant M21K) [nisin A derivative, hinge substitution M21K] | + | 89% | 91% | 104% | − | + | − | − | − | − | − |  | Staph. aureus CBC4 and C. sporogenes CBC5; also recorded: S. aureus CBC 4 and C. sporogenes CBC5; also recorded: S. aureus CBC4, C. sporogenes CBC5 | close to wild-type bioactivities |
| NisinA M21N | − | 95% | 98% | 90% | − | − | + | − | − | − | − |  | L. lactis CBC8 | approximately wild type bioactivity |
| NisinA N20A | + | 60.5% | 52% | 69% | − | − | − | − | − | − | − |  | C. sporogenes CBC5 |  |
